According to the supplement of paper PMC4862054:

Legend:
Details in all cases: incubation time: 72 h
[1] = test system: HDQ-P1; assay: normalised response (% of control), CellTiter-Glo; higher = more viable cells (100 = DMSO, 0 = benzethonium chloride kill control)
Summary of the method: (§1)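 Two readouts were taken after 72 h: CellTox Green fluorescence (485/520 nm) first, then CellTiter-Glo luminescence after 10 min at room temperature. Breast cancer cell lines had been seeded as 20 µl suspension into 384-well plates holding compound at 5 concentrations in 10-fold steps across a compound-specific 10,000-fold range. Each value is a normalised signal at a single concentration, with plates scaled to 0.1 % DMSO (100) and a positive kill control (0).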

[2] = test system: MDA-MB-453; assay: as above
Summary of the method: as §1

[3] = test system: CAL-85-1; assay: as above
Summary of the method: as §1

[4] = test system: MDA-MB-468; assay: as above
Summary of the method: as §1

[5] = test system: HCC1143; assay: as above
Summary of the method: as §1

[6] = test system: MFM-223; assay: as above
Summary of the method: as §1

[7] = test system: SK-BR-3; assay: as above
Summary of the method: as §1

[8] = test system: MCF-10A; assay: as above
Summary of the method: as §1

[9] = test system: CAL-120; assay: as above
Summary of the method: as §1

[10] = test system: Hs578T; assay: as above
Summary of the method: as §1

[11] = test system: MDA-MB-436; assay: as above
Summary of the method: as §1

[12] = test system: CAL-148; assay: as above
Summary of the method: as §1

[13] = test system: BT-474; assay: as above
Summary of the method: as §1

[14] = test system: DU-4475; assay: as above
Summary of the method: as §1

[15] = test system: MDA-MB-231; assay: as above
Summary of the method: as §1

[16] = test system: HCC1937; assay: as above
Summary of the method: as §1

[17] = test system: CAL-51; assay: as above
Summary of the method: as §1

[18] = test system: HCC1599; assay: as above
Summary of the method: as §1

[19] = test system: BT-549; assay: as above
Summary of the method: as §1

[20] = test system: HDQ-P1; assay: normalised response (% of control), CellTox Green; higher = less cell death (100 = DMSO, 0 = benzethonium chloride kill control)
Summary of the method: as §1

[21] = test system: MDA-MB-453; assay: as above
Summary of the method: as §1

[22] = test system: CAL-85-1; assay: as above
Summary of the method: as §1

[23] = test system: MDA-MB-468; assay: as above
Summary of the method: as §1

[24] = test system: HCC1143; assay: as above
Summary of the method: as §1

[25] = test system: MFM-223; assay: as above
Summary of the method: as §1

[26] = test system: MCF-10A; assay: as above
Summary of the method: as §1

[27] = test system: CAL-120; assay: as above
Summary of the method: as §1

[28] = test system: Hs578T; assay: as above
Summary of the method: as §1

[29] = test system: MDA-MB-436; assay: as above
Summary of the method: as §1

[30] = test system: CAL-148; assay: as above
Summary of the method: as §1

[31] = test system: BT-474; assay: as above
Summary of the method: as §1

[32] = test system: DU-4475; assay: as above
Summary of the method: as §1

[33] = test system: MDA-MB-231; assay: as above
Summary of the method: as §1

[34] = test system: HCC1937; assay: as above
Summary of the method: as §1

[35] = test system: CAL-51; assay: as above
Summary of the method: as §1

[36] = test system: HCC1599; assay: as above
Summary of the method: as §1

[37] = test system: BT-549; assay: as above
Summary of the method: as §1

| Compound | normalised response [1] [%] | normalised response [2] [%] | normalised response [3] [%] | normalised response [4] [%] | normalised response [5] [%] | normalised response [6] [%] | normalised response [7] [%] | normalised response [8] [%] | normalised response [9] [%] | normalised response [10] [%] | normalised response [11] [%] | normalised response [12] [%] | normalised response [13] [%] | normalised response [14] [%] | normalised response [15] [%] | normalised response [16] [%] | normalised response [17] [%] | normalised response [18] [%] | normalised response [19] [%] | normalised response [20] [%] | normalised response [21] [%] | normalised response [22] [%] | normalised response [23] [%] | normalised response [24] [%] | normalised response [25] [%] | normalised response [26] [%] | normalised response [27] [%] | normalised response [28] [%] | normalised response [29] [%] | normalised response [30] [%] | normalised response [31] [%] | normalised response [32] [%] | normalised response [33] [%] | normalised response [34] [%] | normalised response [35] [%] | normalised response [36] [%] | normalised response [37] [%] |
| --- | --- | --- | --- | --- | --- | --- | --- | --- | --- | --- | --- | --- | --- | --- | --- | --- | --- | --- | --- | --- | --- | --- | --- | --- | --- | --- | --- | --- | --- | --- | --- | --- | --- | --- | --- | --- | --- |
| CN1CCC(COc2cnc(-c3cccc(Cn4nc(-c5cccc(C#N)c5)ccc4=O)c3)nc2)CC1 (100 nM) | 98.9 | 85.2 | 93.5 | 90.9 | 93.3 | 90.5 | 82.2 | 99.3 | 95.8 | 104 | 93.1 | 100 | 92.7 | 100 | 101 | 97.7 | 74 | 102 | 94 | 103 | 107 | 95.1 | 157 | 101 | 101 | 102 | 98.9 | 110 | 99.9 | 103 | 97.9 | 97.6 | 119 | 125 | 93.3 | 110 | 149 |
| C=CCNC1=C2C[C@@H](C)C[C@H](OC)[C@H](O)[C@@H](C)/C=C(\C)[C@H](OC(N)=O)[C@@H](OC)/C=C\C=C(/C)C(=O)NC(=CC1=O)C2=O [Tanespimycin] (10 nM) | 98.2 | 92.8 | 100 | 94.2 | 105 | 101 | 103 | 105 | 97.9 | 94.4 | 92.6 | 96.4 | 90.4 | 105 | 101 | 96.5 | 120 | 94.4 | 98.3 |  |  |  |  |  |  |  |  |  |  |  |  |  |  |  |  |  |  |
| CO[C@H]1C[C@@H]2CC[C@@H](C)[C@@](O)(O2)C(=O)C(=O)N2CCCC[C@H]2C(=O)O[C@H]([C@H](C)C[C@@H]2CC[C@@H](OC(=O)C(C)(CO)CO)[C@H](OC)C2)CC(=O)[C@H](C)/C=C(\C)[C@@H](O)[C@@H](OC)C(=O)[C@H](C)C[C@H](C)/C=C/C=C/C=C/1C [Temsirolimus] (0.01 nM) | 105 | 108 | 106 | 106 | 98.1 | 101 | 101 | 101 | 99.6 | 96.7 | 99.7 | 110 | 103 | 103 | 101 | 97.1 | 115 | 97 | 98.3 |  |  |  |  |  |  |  |  |  |  |  |  |  |  |  |  |  |  |
| CO[C@H]1C[C@@H]2CC[C@@H](C)[C@@](O)(O2)C(=O)C(=O)N2CCCC[C@H]2C(=O)O[C@H]([C@H](C)C[C@@H]2CC[C@@H](OC(=O)C(C)(CO)CO)[C@H](OC)C2)CC(=O)[C@H](C)/C=C(\C)[C@@H](O)[C@@H](OC)C(=O)[C@H](C)C[C@H](C)/C=C/C=C/C=C/1C [Temsirolimus] (10 nM) | 77.4 | 53.5 | 67.9 | 62.1 | 63.9 | 70.7 | 60.7 | 87.7 | 67.8 | 70 | 79.9 | 62.1 | 83.3 | 74.8 | 93 | 74.4 | 55.5 | 109 | 55.1 | 97.4 | 107 | 95.8 | 103 | 84 | 75.2 |  | 101 | -83.2 | 102 | 90.9 | 103 | 95.5 | 124 | -57.4 | 107 | 101 | 134 |
| O=C(c1ccc(C(=O)N2CCC(N3CCCC3)CC2)c(Nc2ccccc2)c1)N1CCC(N2CCCC2)CC1 [UNC1215] (3 nM) | 97.3 | 102 | 93.7 | 101 | 87.5 | 94.5 | 99 | 102 | 95.3 | 99.1 | 93.6 | 91 | 94.4 | 97.2 | 99.1 | 91.7 | 123 | 92.1 | 96.6 |  |  |  |  |  |  |  |  |  |  |  |  |  |  |  |  |  |  |
| O=C(c1ccc(C(=O)N2CCC(N3CCCC3)CC2)c(Nc2ccccc2)c1)N1CCC(N2CCCC2)CC1 [UNC1215] (30 nM) | 94.3 | 91.5 | 96.7 | 97.4 | 97.3 | 91.4 | 100 | 103 | 102 | 103 | 104 | 95 | 98.7 | 97 | 90.2 | 96.7 | 77.9 | 118 | 97.8 |  |  |  |  |  |  |  |  |  |  |  |  |  |  |  |  |  |  |
| O=C(c1ccc(C(=O)N2CCC(N3CCCC3)CC2)c(Nc2ccccc2)c1)N1CCC(N2CCCC2)CC1 [UNC1215] (3000 nM) | 100 | 98 | 94.7 | 91.6 | 93.9 | 92.6 | 93.5 | 108 | 98 | 95.3 | 92.8 | 94.9 | 95 | 98.3 | 91.2 | 94 | 115 | 107 | 96.9 |  | 99.2 | 96.8 | 80.5 | 109 | 101 | 101 | 99.3 |  | 96.3 | 99.7 | 96.9 | 98.5 | 98 | 111 | 114 | 99.8 | 85.1 |
| C[C@]1(c2nc3c(C(N)=O)cccc3[nH]2)CCCN1 [Veliparib] (10 nM) | 98.7 | 109 | 106 | 108 | 105 | 99.7 | 110 | 105 | 102 | 98.8 | 99 | 98.8 | 103 | 104 | 99 | 101 | 118 | 92.1 | 100 |  |  |  |  |  |  |  |  |  |  |  |  |  |  |  |  |  |  |
| CC[C@]1(O)C[C@@H]2CN(CCc3c([nH]c4ccccc34)[C@@](C(=O)OC)(c3cc4c(cc3OC)N(C)[C@H]3[C@@](O)(C(=O)OC)[C@H](OC(C)=O)[C@]5(CC)C=CCN6CC[C@]43[C@@H]65)C2)C1 [Vinblastine] (1 nM) | 101 | 97.2 | 93 | 97.9 | 97.1 | 97.6 | 94.7 | 103 | 95 | 102 | 90.7 | 98.8 | 100 | 96.9 | 94.7 | 94.9 | 101 | 101 | 87.8 |  |  |  |  |  |  |  |  |  |  |  |  |  |  |  |  |  |  |
| CS(=O)(=O)c1ccc(C(=O)Nc2ccc(Cl)c(-c3ccccn3)c2)c(Cl)c1 [Vismodegib] (10 nM) | 99.4 | 89.4 | 102 | 92.9 | 93.9 | 94.3 | 105 | 90.3 | 95.2 | 95.4 | 91.5 | 91 | 90.2 | 96.4 | 90.8 | 96.4 | 126 | 100 | 96.4 |  |  |  |  |  |  |  |  |  |  |  |  |  |  |  |  |  |  |
